# Measured values: patent US20070299084A1, “Indole Derivatives Useful for Treating Resistance to Antitumor Agents” (NIKEM RESE S.R.L., priority 2004, published 2007)
# Marks after values point to notes of the source that are not given here.
# Columns and labels:
# [1] = system: H460 cells (human lung carcinoma); test: Invasion assay (Matrigel chemoinvasion); assay type: cell-based
# Protocol: Human Lung Carcinoma:H460: maintained in RPMI1640 medium+10% FCS.
# H460 cells were seeded in complete medium and treated with different compound concentrations for 24 h. Then, cells were harvested and transferred to 24-well Transwell chambers (Costar) in serum-free medium in the following ways:
# invasion assay: Transwell membranes were coated with 12.5 μg/well of Matrigel (BD Biosciences) and dried for 24 h. After this, 2.4×10^5 cells/well were seeded onto the artificial basement membrane in upper chamber, and drug was added as described for migration assay. After 24 h of incubation at 37° C., cells that invaded the Matrigel and migrated to the lower chamber were stained and counted as described for migration assay.
# [2] = Drug tolerability in H460 tumor-bearing mice (lethal toxicity); conditions: athymic Swiss nude, mouse, in vivo, 8 weeks
# Protocol: (§1) The effects of the compounds of the invention and/or topotecan on the growth of primary tumors and spontaneous lung metastasis were tested in mice inoculated s.c. in the right flank with H460 ascitic tumor cells (2×10^6/mouse). Each control or drug-treated group included 9-11 mice. The s.c. tumor growth was followed by biweekly measurements of tumor diameters with a Vernier caliper. Drug treatment was delivered orally, for 8 weeks, from day 1. Topotecan was delivered at the dose of 1 mg/kg and compounds of the invention were delivered at the dose of 30 mg/kg; in the combination group the compounds of the invention were delivered almost 1 hour after topotecan treatment. Control mice were solvent-treated orally in parallel with drug treatments.
# (§2) Drug efficacy was assessed as mean percentage tumor weight inhibition in drug-treated versus control mice expressed as tumor weight inhibition % (TWI %)=100−(mean tumor weight treated/mean tumor weight control×100), evaluated during and after drug treatment. Drug tolerability was assessed in tumor-bearing mice as either lethal toxicity, i.e., any death in treated mice occurring before any control death, or percentage body weight loss (BWL %)=100−(body weight on day x/body weight on day 1×100), where x represents a day after or during the treatment period.
# [3] = system: HT29/Mit cells (mitoxantrone-resistant human colon carcinoma, BCRP overexpression); test: Antiproliferative activity, 72 h treatment, SRB assay, HT29/Mit
# Protocol: HT29 and HT29/Mit (line obtained by prolonged exposure to mitoxantrone, and characterised by overerexpression of BCRP, which confers cross resistance to topotecan, irinotecan and to its metabolite SN38): maintained in McCoy 5A medium+10% FCS.
# The cells (HT29 and HT29/Mit:. 40,000 cells/ml, LoVo, LoVo/Dx and HCT116: 50,000 cells/ml) are seeded in 100 μl of the respective culture media in 96-well plates. 24 hours after seeding, an aliquot (10 μl) of drug at the various concentrations is added. In the samples in which the effect of the combination of two compounds is to be tested the inhibitor is added immediately before the cytotoxic. For each dose or combination of doses/drugs the effect of the treatment is determined in 4-8 replicates.
# After 72 hours of treatment the antiproliferative effect is evaluated using the sulforhodamine B (SRB) assay: the cells are fixed by adding 25 μl of 50% TCA to each well and left for 1 hour at 4° C. After washing them with water and allowing them to dry, 100 μl of 0.4% SRB in 1% acetic acid are added and left for 30 minutes at room temperature. After 4 washes in 1% acetic acid, they are left to dry, then the dye fixed by the proteins is dissolved under basic conditions with 100 μl 10 mM cold Tris and the solution is read using a spectrophotometer at 550 nm.
# Percentage cell growth is calculated as the optical density of treated samples compared to the optical density of controls (untreated cells).
# The Combination Index (C.I.) was determined according to Kern's method, 1988 (who continued from Drewinko B, 1976) (Kern D. H., Cancer Res. 48, 117-121, 1988; Drewinko B., Cancer Biochem. Biophys. 1, 187-195, 1976) by means of the following formula: […], where SFa and SFb are the fractions of cells surviving to treatment with compound a and b, respectively; SFab is the fraction surviving to the combination of compounds a and b.
# [4] = system: H460 spontaneous lung metastasis; test: H460 xenograft, spontaneous lung metastasis (antimetastatic activity); assay type: in vivo, athymic Swiss nude mice; conditions: topotecan 1 mg/kg, compound of example 2 30 mg/kg p.o.
# Protocol: At day 63, tumor-bearing mice were sacrificed by cervical dislocation and their lungs were removed and weighed. Lung lobes were spliced between two glass slides and the metastatic nodules were macroscopically counted against a bright light (Corti C, J. Cancer Res. Clin. Oncol. 122, 154-60, 1996). […] Reading of metastasis was performed by two independent observers, unaware of the experimental group, with an interobserver reproducibility >95%. The metastatic nature of these areas was confirmed by histological analysis of digital images obtained by Image Analysis System software (Delta System, Rome, Italy).
# [5] = system: HT29 cells (human colon carcinoma); test: Antiproliferative activity, 72 h treatment, SRB assay, HT29; assay type: cell-based
# [6] = system: LoVo/Dx cells (doxorubicin-resistant human colon carcinoma, P-glycoprotein overexpression); test: Antiproliferative activity, 72 h treatment, SRB assay, LoVo/Dx; assay type: cell-based
# Text: LoVo and LoVo/Dx (line obtained by prolonged exposure to doxorubicin and characterised by overerexpression of P-glycoprotein, which confers resistance to doxorubicin): maintained in HAM-F12 medium+10% FCS.
# H460 primary tumor = test: H460 human non-small cell lung carcinoma xenograft, antitumor activity on the primary tumor; assay type: in vivo, athymic Swiss nude mice; conditions: H460 s.c., p.o. for 8 weeks, topotecan 1 mg/kg, compound of example 2 30 mg/kg
# Protocol: Female athymic Swiss nude mice (8-10 weeks old) (Charles River, Calco, Italy) were used for the experiments, as described above.
# H460 cells were injected i.p. into nude mice, adapted to grow as ascitis and maintained in vivo by i.p. passages (5×10^6 cells/mouse in 0.5 ml PBS) (Pratesi G., Br. J. Cancer 63, 71-74, 1991). Briefly, cells were collected from the donor mice about 7 days after inoculum. After washing, cell number and viability were determined by trypan blue exclusion. Such procedure allowed to obtain a single cell suspension easily available for s.c or i.v. injection.
# as §1, §2
# [7] = cell line not stated in the sentence (follows LoVo/DX)
structure (smiles),measurement,setting,value
CCOc1cc(C(=O)NC2CC(C)(C)NC(C)(C)C2)ccc1-c1cc2cc(Cl)c(Cl)cc2[nH]1 [Example 2],inhibition at 2.2 µM,"[1]; NCI-H460, 2.2 μM",92%
same,inhibition at 5.7 µM,"[1]; NCI-H460, 5.7 μM",100%
same,Tox/Tot (any death in treated mice occurring before any control mice),[2],0/10
same,Effect on antiproliferative activity of topotecan,"[3]; HT29/Mit model, subtoxic and subactive concentrations (<1 μM) of compound of example 2",enhanced antiproliferative activity of topotecan
same,Effect on cell growth of compound of example 2 alone,"[3]; HT29/Mit, 72 hours, 0.5 μM",does not itself inhibit cell growth
same,IC50,"[3]; Homo sapiens, HT-29, 72 h, read-out: Antiproliferative activity (IC50 ± S.D., μM) HT-29/Mit",0.9 ± 0.2 µM
same,Lung No. Metastasis (range),[4]; day 63,reduced
same,Lung Weight (mg) (mean ± S.D.),[4]; day 63,177 ± 30 mg
same,Lung No. Metastasis (range),"[4]; day 63, listed as Compound of example 2",15 (3-56)
same,Lung metastasis Inhibition %,[4]; inhibition of number of metastasis vs controls,42%
same,Effect on antiproliferative activity of topotecan,"[5]; HT29 model, subtoxic and subactive concentrations (<1 μM) of compound of example 2",enhanced antiproliferative activity of topotecan
same,IC50,"[5]; Homo sapiens, HT-29, 72 h, read-out: Antiproliferative activity (IC50 ± S.D., μM) HT-29",1 ± 0.1 µM
same,Antiproliferative activity in the human tumour cell lines used (summary of Table 1),"[5]; all lines: 72 hours (HT29, HT29/Mit, LoVo, LoVo/DX, HCT116) or 48 hours (HepG2, SHSY-5Y, SK-N-BE(2), A2780)",high antiproliferative potency
same,IC50,"[6]; Homo sapiens, LoVo/DX, 72 h, read-out: Antiproliferative activity (IC50 ± S.D., μM) LoVo/Dx",3 ± 1.3 µM
same,Interaction with SN38,"[6]; LoVo/DX variant (MDR phenotype), compared with LoVo",even more evident
same,Interaction with doxorubicin,[6]; [7],Synergistic interactions
same,Interaction with taxol,[6]; [7],Synergistic interactions
same,LCK (Log10 Cell Kill),H460 primary tumor,0.6
same,Max TWI (day 56) (Maximal Tumor weight inhibition achieved),H460 primary tumor; listed as Compound of example 2,58* %
same,Max TWI (day 56) (Maximal Tumor weight inhibition achieved),H460 primary tumor; listed as compound of example 2,58%
